“Also recorded” adds a separate entry of the source.
Assays:
Type in all cases: in vivo, rat (male)
[1] = Efficiency of Traversing Eye to Retina (EtE) of FITC labeled peptides given in eye drops
Description: In order to trace the drugs, peptides were labeled with fluorescein isothiocyanate (FITC) using a FITC Protein Labeling Kit from ChangRu Biotech Ltd. (Guangzhou, China) according to the manufacturer’s protocol. After the labeling reaction, gel filtration was used to remove the free FITC. In order to determine the amount of the residual free FITC, the peptides were submitted to ultrafiltration using Amicon Ultra – 0.5 mL (Millipore, USA) with a molecular sieve of 2000 Da. After centrifugation (1000×g, 10 min) the peptide was subjected to fluorescence measurements performed with the multi-wavelength scanner Victor 3 (GE, USA) at the excitation of 495 nm and the emission of 520 nm. Protein concentrations were determined using the K4000 Bradford Protein Quantification Kit (Innovative, Guangzhou, China). The labeling efficiency was calculated using the following formula: label efficiency (LE) = fluorescence value (FV)/peptide mass (mol) (PM), representing the fluorescence intensity (AU) per mol of peptide (mol).
Male rats with body weight from 160 to 180 g were purchased from the Medical and Experimental Animal Center (Guangdong, China). Rats were randomly assigned to one of the experimental groups (7 rats per group) and subjected to eye drops with FITC labeled peptides (100 nmol/kg) and PBS as control. Rats were sacrificed by anesthesia 2 h after the eye drop administration and the retina was separated, weighed, washed three times with PBS and divided into two parts. One part was prepared on the glass slide with glycerin and subjected to fluorescence microscopic observation of FITC with 495 nm excitation/520 nm emission. All images, focused on the left upper regions of the retina, were taken with 500 ms exposure time. The other part of the retina was subjected to grinding and ultrasonication in PBS at a concentration of 100 mg weight tissue per milliliter of PBS. The supernatant was collected by centrifugation and the fluorescence intensity in the supernatant (100 uL) was determined. The valid fluorescence intensity (FI) for each sample treated with FITC labeled peptide was corrected by subtracting the fluorescence value of the sample treated with PBS, which was used as a blank background. The Efficiency of Traversing Eye to Retina (EtE) was expressed as the percentages of the FITC labeled peptide mass in the retina to the total FITC labeled peptide mass. The EtE was calculated using the following formula: EtE = tFI/LE/PW × 100% (tFI presents the fluorescence intensity of retina (arbitration unit, AU); LE presents the label efficiency of each peptide which has been determined above; PW presents the peptide mass (mole)).
Fig. 1 The efficiency of FITC labeled PACAP/PACAP-TAT (a, b) and VIP/VIP-TAT (c, d) traversing to retina given in eye drops. The retina was separated 2 h after the eye drops and submitted to the fluorescence microscopic observation of FITC fluorescence signal (A, C) and the calculation of Efficiency of Traversing Eye to Retina (EtE) (b, d). The data are means ± SEM of four experiments

[2] = test system: retina (BCCAO-induced retinopathy); assay: Retinal layer thickness / morphology after bilateral carotid artery occlusion (BCCAO), eye drops
Description: (§1) Adult male rat litters were housed in the animal facility in individual cages in a 12 h light-dark cycle with food and water ad libitum. Animal housing, care and application of experimental procedures were in accordance with institutional guidelines under approved protocols (No: BA02/2000–26/2017, University of Pecs). Under isoflurane anesthesia, common carotid arteries were exposed on both sides through a midline incision and then ligated with a 3–0 filament. A group of animals (sham group) underwent all steps of the operating procedure except ligation of the carotid arteries. Immediately following the operation, the right eye of the animals was treated with derivatives of PACAP (PACAP-TAT /n = 17/ or VIP-TAT /n = 17/) eye drops (1 μg/drop). Dose and schedule of the eye drop treatments were based on our previous experiments (Werling et al. [2016]). In the experiment for histological analysis, the different derivatives were dissolved in benzalkonium solution for ophthalmic use (solutio ophthalmica cum benzalkonio (SOCB)). The left eye, serving as a control, was treated with vehicle containing neither PACAP-TAT nor VIP-TAT. Animals were treated for five consecutive days, twice a day with one drop of drug, under brief isoflurane anesthesia (max. 5 min).
(§2) Fourteen days after the operation, rats (n = 10 SHAM and n = 24 BCCAO) were killed with anesthetic and the eyes were processed for histology. The eyes were removed and the retinas were solved in phosphate buffered saline (PBS), fixed in 4% paraformaldehyde dissolved in 0.1 M phosphate buffer (PB) (Sigma, Budapest, Hungary) and embedded in Durcupan ACM resin (Sigma, Budapest, Hungary). Retinas were cut at 2 μm and stained with toluidine blue dye (Sigma, Hungary). Sections were mounted in DPX medium (Sigma, Hungary) and photographs were taken with a digital CCD camera using the Spot program. Central retinal areas within 1 mm from the optic nerve were used (n = 5 measurements from one tissue block). The following parameters were measured: (i) cross-section of the retina from the outer limiting membrane (OLM) to the inner limiting membrane (ILM), (ii) the width of individual retinal layers (outer nuclear layer [ONL], outer plexiform layer [OPL], inner nuclear layer [INL], inner plexiform layer [IPL]), (iii) the number of cells/100 μm section length in the GCL, and the (iv) number of cells/[…]. Results are presented as mean ± SEM. Statistical comparisons were made using the two-way ANOVA test followed by Tukey’s post hoc analysis.
(§3) Fig. 4 Quantification of retinal layers in SHAM+SOCB, in SHAM+PACAP-TAT, in BCCAO+SOCB, and in BCCAO+PACAP-TAT animals; the right eye was treated with PACAP-TAT eye drops, the left eye served as controls receiving only SOCB. Comparison of all retinal layers (a–e). […] Statistical significance (*p < 0.05 vs. SHAM+SOCB retinas, #p < 0.05 vs. BCCAO+SOCB retinas) was calculated by two-way ANOVA followed by Fischer’s post hoc test
as §3, with “6” for “4”, “SHAM+VIP-TAT,” for “SHAM+PACAP-TAT,”, “BCCAO+VIP-TAT” for “BCCAO+PACAP-TAT”, “VIP-TAT” for “PACAP-TAT”, “control” for “controls”

[3] = test system: retina (BCCAO-induced retinopathy); assay: Number of cells in retinal nuclear layers and GCL after BCCAO, eye drops; settings: eye drops 1 μg/drop, twice a day, five days, vs BCCAO-induced degenerated retinas, 14 days
Description: as §1, §2
(§4) Fig. 5 Quantification of the number of cells/100 μm GCL length (a), the number of cells/500 μm^2 ONL (b) and INL (c) areas in SHAM+SOCB, in SHAM+PACAP-TAT, in BCCAO+SOCB, and in BCCAO+PACAP-TAT animals. Statistical significance (*p < 0.05 vs. SHAM+SOCB retinas, #p < 0.05 vs. BCCAO+SOCB retinas) was calculated by two-way ANOVA followed by Bonferroni’s post hoc test
as §4, with “Fig. 7” for “Fig. 5”, “in SHAM+VIP-TAT,” for “in SHAM+PACAP-TAT,”, “in BCCAO+VIP-TAT” for “in BCCAO+PACAP-TAT”

CC[C@H](C)[C@H](NC(=O)CNC(=O)[C@H](CC(=O)O)NC(=O)[C@H](CO)NC(=O)[C@@H](N)Cc1c[nH]cn1)C(=O)N[C@@H](Cc1ccccc1)C(=O)N[C@H](C(=O)N[C@@H](CC(=O)O)C(=O)N[C@@H](CO)C(=O)N[C@@H](Cc1ccc(O)cc1)C(=O)N[C@@H](CO)C(=O)N[C@@H](CCCNC(=N)N)C(=O)N[C@@H](Cc1ccc(O)cc1)C(=O)N[C@@H](CCCNC(=N)N)C(=O)N[C@@H](CCCCN)C(=O)N[C@@H](CCC(N)=O)C(=O)N[C@@H](CCSC)C(=O)N[C@@H](C)C(=O)N[C@H](C(=O)N[C@@H](CCCCN)C(=O)N[C@@H](CCCCN)C(=O)N[C@@H](Cc1ccc(O)cc1)C(=O)N[C@@H](CC(C)C)C(=O)N[C@@H](C)C(=O)N[C@@H](C)C(=O)N[C@H](C(=O)N[C@@H](CC(C)C)C(=O)NCC(=O)N[C@@H](CCCCN)C(=O)N[C@@H](CCCNC(=N)N)C(=O)N[C@@H](Cc1ccc(O)cc1)C(=O)N[C@@H](CCCCN)C(=O)N[C@@H](CCC(N)=O)C(=O)N[C@@H](CCCNC(=N)N)C(=O)N[C@H](C(=O)N[C@@H](CCCCN)C(=O)N[C@@H](CC(N)=O)C(=O)N[C@@H](CCCCN)C(=O)NCC(=O)N[C@@H](CCCNC(=N)N)C(=O)N[C@@H](CCCCN)C(=O)N[C@@H](CCCCN)C(=O)N[C@@H](CCCNC(=N)N)C(=O)N[C@@H](CCCNC(=N)N)C(=O)N[C@@H](CCC(N)=O)C(=O)N[C@@H](CCCNC(=N)N)C(=O)N[C@@H](CCCNC(=N)N)C(=O)N[C@@H](CCCNC(=N)N)C(=O)N1CCC[C@H]1C(=O)N[C@@H](CCC(N)=O)C(=O)O)C(C)C)C(C)C)C(C)C)[C@@H](C)O [PACAP-TAT]
Efficiency of Traversing Eye to Retina (EtE) ([1]; FITC labeled peptides, eye drops 100 nmol/kg, retina separated 2 h after, fluorescence 495 nm excitation/520 nm emission, % of FITC labeled peptide mass in retina to total, means ± SEM of four experiments (7 rats per group)): 3.66 ± 0.67%
EtE relative to the untagged peptide ([1]; PACAP-TAT/VIP-TAT vs PACAP/VIP, respectively, eye drops 100 nmol/kg, 2 h): about three-fold that of PACAP/VIP
FITC fluorescence density per area unit in the retina ([1]; fluorescence microscopy of retina 2 h after eye drops of FITC labeled peptides (100 nmol/kg), vs PACAP/VIP): much higher than in retinas treated with eye drops of PACAP/VIP
OPL preservation after BCCAO ([2]; BCCAO + eye drops, OPL almost disappeared in several BCCAO-induced degenerated retinas): preserved
Retinal degeneration in light microphotographs after BCCAO ([2]; BCCAO + eye drops, toluidine blue sections, 14 days, severe degeneration in BCCAO+SOCB): only mild degeneration
Retinoprotective efficacy of eye drops, overall / compared with untagged peptide ([2]; BCCAO, topical eye drops in SOCB): attenuate ischemic retinal degeneration via the PAC1 receptor; also recorded: did not prove to have significantly higher retinoprotective efficacy than untagged PACAP
Retinal layer thickness (OLM-ILM, ONL, OPL, INL, IPL) after BCCAO ([2]; BCCAO, eye drops 1 μg/drop, twice a day, five consecutive days, in SOCB, right eye, left eye SOCB control, 14 days, p < 0.05 vs. BCCAO+SOCB): significant amelioration in all retinal layers; also recorded: improved the structure of all the retinal layers
Change of retinal thickness in sham animals ([2]; eye drops alone in sham animals, 1 μg/drop, twice a day, five consecutive days, in SOCB, histology 14 days after operation): did not cause any changes in the retinal thickness
Number of cells in the GCL/100 μm after BCCAO [3]: significantly higher compared to the BCCAO-induced degenerated retinas
Number of cells in the INL/500 μm2 after BCCAO [3]: significantly higher compared to the BCCAO-induced degenerated retinas
Number of cells in the ONL/500 μm2 after BCCAO [3]: significantly higher compared to the BCCAO-induced degenerated retinas
